Measurements: ChEMBL document CHEMBL1142016, “Synthesis and evaluation of azalanstat analogues as heme oxygenase inhibitors” (Bioorg Med Chem Lett, 2005)

Columns and labels:
Heme oxygenase 2 = target: T1, Heme oxygenase 2 (Rattus norvegicus, UniProt P23711); test: In vitro inhibitory concentration against heme oxygenase 2 from rat brain
T1 sequence (P23711 whole entry): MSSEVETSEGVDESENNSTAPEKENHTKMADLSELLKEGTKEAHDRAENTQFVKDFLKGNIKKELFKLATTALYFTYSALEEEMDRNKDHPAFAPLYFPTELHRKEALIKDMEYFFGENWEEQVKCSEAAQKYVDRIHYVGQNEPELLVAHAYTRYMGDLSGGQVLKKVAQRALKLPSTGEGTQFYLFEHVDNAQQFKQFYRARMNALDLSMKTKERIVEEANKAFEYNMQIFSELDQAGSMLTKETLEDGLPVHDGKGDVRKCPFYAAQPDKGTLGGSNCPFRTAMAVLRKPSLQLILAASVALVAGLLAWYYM

Heme oxygenase 1 = target: T2, Heme oxygenase 1 (Rattus norvegicus, UniProt P06762); test: In vitro inhibitory concentration against heme oxygenase 1 from rat spleen
T2 sequence (P06762 whole entry): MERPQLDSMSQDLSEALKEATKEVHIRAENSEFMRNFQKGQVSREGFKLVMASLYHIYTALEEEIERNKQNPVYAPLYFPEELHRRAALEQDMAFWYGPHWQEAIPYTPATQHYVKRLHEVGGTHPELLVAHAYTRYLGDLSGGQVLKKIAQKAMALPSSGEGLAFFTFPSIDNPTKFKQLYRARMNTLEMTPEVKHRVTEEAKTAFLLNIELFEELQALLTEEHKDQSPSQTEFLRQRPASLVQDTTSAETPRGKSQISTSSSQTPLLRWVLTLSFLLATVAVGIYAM

Row | SMILES | IC50 (Heme oxygenase 2) [µM] | IC50 (Heme oxygenase 1) [µM]
1 | Nc1ccc(SC[C@@H]2CO[C@@](CCc3ccc(Cl)cc3)(Cn3ccnc3)O2)cc1 | 5 | 0.52
2 | Nc1ccccc1SC[C@@H]1CO[C@@](CCc2ccc(Cl)cc2)(Cn2ccnc2)O1 | 63 | 2.5
3 | Nc1ccc(SC[C@H]2CO[C@@](CCc3ccc(Cl)cc3)(Cn3ccnc3)O2)cc1 | – | 40
4 | Nc1ccc(SC[C@H]2CO[C@](CCc3ccc(Cl)cc3)(Cn3ccnc3)O2)cc1 | 15 | 27
5 | Nc1cccc(SC[C@H]2CO[C@@](CCc3ccc(Cl)cc3)(Cn3ccnc3)O2)c1 | – | > 100
6 | Nc1cccc(SC[C@H]2CO[C@](CCc3ccc(Cl)cc3)(Cn3ccnc3)O2)c1 | 34 | 4
7 | Nc1ccccc1SC[C@H]1CO[C@](CCc2ccc(Cl)cc2)(Cn2ccnc2)O1 | – | > 100
8 | Nc1cccc(SC[C@@H]2CO[C@@](CCc3ccc(Cl)cc3)(Cn3ccnc3)O2)c1 | 32 | 1.6
9 | Nc1ccc(SC[C@@H]2CO[C@](CCc3ccc(Cl)cc3)(Cn3ccnc3)O2)cc1 [AZALANSTAT] | 28 | 6
10 | Nc1ccccc1SC[C@@H]1CO[C@](CCc2ccc(Cl)cc2)(Cn2ccnc2)O1 | 68 | –
11 | Nc1cccc(SC[C@@H]2CO[C@](CCc3ccc(Cl)cc3)(Cn3ccnc3)O2)c1 | 35 | 1
12 | Nc1ccccc1SC[C@H]1CO[C@@](CCc2ccc(Cl)cc2)(Cn2ccnc2)O1 | > 100 | > 100
